Drawing on patent US9637491B2, “Pyrazolo[4,3-D]pyrimidines as kinase inhibitors” (Origenis GmbH, priority 2012, dated 2017), this text covers IC50 for 34 compounds.

Structures are written as SMILES. Some results are limits rather than exact numbers.

The assay concerns the target T1, SYK kinase (Homo sapiens, UniProt P43405).
T1 construct: purchased Invitrogen, Carlsbad
The assay can be described thus: SYK assay (OMNIA Kinase Assay, Invitrogen). The format is biochemical. As to conditions: SYK Activities; 1 mM ATP, 10 μM Omnia Peptide Substrate Tyr 7, 30° C. The method, then:
In the assay OMNIA® KINASE ASSAY by Invitrogen Corporation (Carlsbad) the effect of invention of a compound on the phosphorylation is determined by measurement of fluorescence intensity of a chelation-enhanced fluorophore called SOX. Upon phosphorylation of the peptide by the kinase of interest, Mg2+ is chelated to form a bridge between the SOX moiety and the phosphate group that is transferred to the specific tyrosine on the peptide. The fluorescence intensity is directly proportional to the amount of peptide phosphorylation.
To the wells of an 384 well small volume plate (Greiner, Frickenhausen) are added (i) the compound under test in 5% DMSO/distilled water (2 μl), (ii) 16 μl of the master mix containing ATP, DTT, Kinase Reaction Buffer, Omina Peptide Substrate Tyr 7 resulting in a final concentration of 1 mM ATP, 0.2 mM DTT and 10 μM Peptide Substrate. The Master Mix and the assay plate was incubated to reaction temperature before the measurement (30° C.). The reaction was started with addition of (iii) 2 μl 4 μg/ml SYK kinase (Invitrogen, Carlsbad). During measurement fluorescence intensitiy readings were collected using a TECAN M1000 at a wavelength of λex 360/λem 485 nm every 30 s for 30 minutes. The reaction velocity was plotted versus the inhibitor concentration to determine the IC50 using XLFit 5.0 (IDBS, Guildford) to fit to a sigmoidal dose response curve.

The compound `CC(C)(C)N1CCN(c2ccc(Nc3nc(-c4ccoc4)nc4cn[nH]c34)cc2)CC1` [Example 97, N-(4-(4-(tert-butyl)piperazin-1-yl)phenyl)-5-(furan-3-yl)-1H-pyrazolo[4,3-d]pyrimidin-7-amine] had an IC50 of 10 to 100 nM. `COCC(C)(C)n1cc(Nc2nc(C3CC3)nc3cn[nH]c23)cn1` [Example 283, 5-cyclopropyl-N-(1-(1-methoxy-2-methylpropan-2-yl)-1H-pyrazol-4-yl)-1H-pyrazolo[4,3-d]pyrimidin-7-amine] yielded an IC50 of 10 to 100 nM.

In turn, `CC(C)n1cc(Nc2nc(-c3ccco3)nc3cn[nH]c23)cn1` [Example 214, 5-(furan-2-yl)-N-(1-isopropyl-1H-pyrazol-4-yl)-1H-pyrazolo[4,3-d]pyrimidin-7-amine] came in with an IC50 below 10 nM. On to `c1cncc(-c2nc(Nc3ccc(N4CCOCC4)cc3)c3n[nH]cc3n2)c1` [Example 162, N-(4-morpholinophenyl)-5-(pyridin-3-yl)-2H-pyrazolo[4,3-d]pyrimidin-7-amine], for which the IC50 fell in the range of 100 to 1000 nM. Regarding `COc1cc(Nc2nc(C3C4CCCCC43)nc3cn[nH]c23)ccc1N1CCOCC1` (stereo not shown) [Example 475, 5-(bicyclo[4.1.0]heptan-7-yl)-N-(3-methoxy-4-morpholinophenyl)-1H-pyrazolo[4,3-d]pyrimidin-7-amine], the 50% inhibitory concentration (IC50) lay in the range of 100 to 1000 nM. Take `CC(C)n1ncc(Nc2nc(C3CC3)nc3cn[nH]c23)c1Cl` [Example 297, N-(5-chloro-1-isopropyl-1H-pyrazol-4-yl)-5-cyclopropyl-1H-pyrazolo[4,3-d]pyrimidin-7-amine]: the half-inhibitory concentration (IC50) is 100 to 1000 nM. The same measure for `COCCCn1cc(Nc2nc(-c3cccc(OC)c3)nc3cn[nH]c23)cn1` [Example 408, 5-(3-methoxyphenyl)-N-(1-(3-methoxypropyl)-1H-pyrazol-4-yl)-1H-pyrazolo[4,3-d]pyrimidin-7-amine]: 10 to 100 nM; for `COCCn1ccc(Nc2nc(C3CC3)nc3cn[nH]c23)cc1=O` [Example 231, 4-((5-cyclopropyl-1H-pyrazolo[4,3-d]pyrimidin-7-yl)amino)-1-(2-methoxyethyl)pyridin-2(1H)-one]: 100 to 1000 nM. `CC1(c2nc(Nc3ccc(N4CCOCC4)cc3)c3[nH]ncc3n2)CC1` [Example 99, 5-(1-methylcyclopropyl)-N-(4-morpholinophenyl)-1H-pyrazolo[4,3-d]pyrimidin-7-amine] came in with an IC50 of 100 to 1000 nM.

The compound `N#Cc1cc(Nc2nc(-c3c(F)cccc3F)nc3cn[nH]c23)ccc1N1CCOCC1` [Example 502, 5-((5-(2,6-difluorophenyl)-1H-pyrazolo[4,3-d]pyrimidin-7-yl)amino)-2-morpholinobenzonitrile] had an IC50 of 10 to 100 nM. The same measure for `CC(=O)N1CCN(c2ccc(Nc3nc(-c4ccco4)nc4cn[nH]c34)cc2)CC1` [Example 111, 1-(4-(4-((5-(furan-2-yl)-1H-pyrazolo[4,3-d]pyrimidin-7-yl)amino)phenyl)piperazin-1-yl)ethan-1-one]: 10 to 100 nM; for `CS(=O)(=O)Nc1cccc(-c2nc(Nc3cnn(C4CCOCC4)c3)c3[nH]ncc3n2)c1` [Example 263, N-(3-(7-((1-(tetrahydro-2H-pyran-4-yl)-1H-pyrazol-4-yl)amino)-1H-pyrazolo[4,3-d]pyrimidin-5-yl)phenyl)methanesulfonamide]: 100 to 1000 nM.

In the case of `COc1ccc(Nc2nc(-c3ccno3)nc3cn[nH]c23)cc1OC` [Example 68, N-(3,4-dimethoxyphenyl)-5-(isoxazol-5-yl)-1H-pyrazolo[4,3-d]pyrimidin-7-amine], the half-maximal inhibitory concentration (IC50) is 100 to 1000 nM. `c1ccc(Sc2ccc(Nc3nc(-c4ccc5cn[nH]c5c4)nc4cn[nH]c34)cc2)cc1` [Example 515, 5-(1H-indazol-6-yl)-N-(4-(phenylthio)phenyl)-1H-pyrazolo[4,3-d]pyrimidin-7-amine] yielded a concentration for half-maximal inhibition (IC50) of 100 to 1000 nM. The compound `CC(C)Cn1cc(-c2nc(Nc3ccc(N4CCOCC4)cc3)c3[nH]ncc3n2)cn1` [Example 383, 5-(1-isobutyl-1H-pyrazol-4-yl)-N-(4-morpholinophenyl)-1H-pyrazolo[4,3-d]pyrimidin-7-amine] registered an IC50 of 100 to 1000 nM. With `COc1cc(Nc2nc(-c3cccs3)nc3cn[nH]c23)ccc1N1CCOCC1` [Example 37, N-(3-methoxy-4-morpholinophenyl)-5-(thiophen-2-yl)-1H-pyrazolo[4,3-d]pyrimidin-7-amine], the IC50 was 100 to 1000 nM. `Fc1cccc(F)c1-c1nc(Nc2ccc3c(c2)NCCO3)c2[nH]ncc2n1` [Example 537, N-(5-(2,6-difluorophenyl)-1H-pyrazolo[4,3-d]pyrimidin-7-yl)-3,4-dihydro-2H-benzo[b][1,4]oxazin-6-amine] returned an IC50 of 10 to 100 nM.

The compound `c1coc(-c2nc(Nc3cnn(C4CC4)c3)c3[nH]ncc3n2)c1` [Example 278, N-(1-cyclopropyl-1H-pyrazol-4-yl)-5-(furan-2-yl)-1H-pyrazolo[4,3-d]pyrimidin-7-amine] yielded an IC50 of 10 to 100 nM. As to `CC(C)Cn1cc(Nc2nc(-c3cccc(NS(C)(=O)=O)c3)nc3cn[nH]c23)cn1` [Example 261, N-(3-(7-((1-isobutyl-1H-pyrazol-4-yl)amino)-1H-pyrazolo[4,3-d]pyrimidin-5-yl)phenyl)methanesulfonamide], the IC50 lay in the range of 100 to 1000 nM.

The compound `CC1CC1c1nc(Nc2ccc(N3CCOCC3)cc2)c2[nH]ncc2n1` (stereo not shown) [Example 101, 5-(2-methylcyclopropyl)-N-(4-morpholinophenyl)-1H-pyrazolo[4,3-d]pyrimidin-7-amine] displayed an IC50 of 10 to 100 nM. The same measure for `Cc1c(Nc2nc(C3CCC3)nc3cn[nH]c23)cnn1C(C)C` [Example 325, 5-cyclobutyl-N-(1-isopropyl-5-methyl-1H-pyrazol-4-yl)-1H-pyrazolo[4,3-d]pyrimidin-7-amine]: 100 to 1000 nM; for `COc1cc(Nc2nc(-c3c(C)cccc3F)nc3cn[nH]c23)ccc1N1CCOCC1` [Example 481, 5-(2-fluoro-6-methylphenyl)-N-(3-methoxy-4-morpholinophenyl)-1H-pyrazolo[4,3-d]pyrimidin-7-amine]: 100 to 1000 nM; for `CN(C)C(=O)Cn1cc(Nc2nc(C3CCC3)nc3cn[nH]c23)cn1` [Example 461, 2-(4-((5-cyclobutyl-1H-pyrazolo[4,3-d]pyrimidin-7-yl)amino)-1H-pyrazol-1-yl)-N,N-dimethylacetamide]: 100 to 1000 nM.

Consider `CC(C)Cn1cc(Nc2nc(C(C)(C)C)nc3cn[nH]c23)cn1` [Example 268, 5-(tert-butyl)-N-(1-isobutyl-1H-pyrazol-4-yl)-1H-pyrazolo[4,3-d]pyrimidin-7-amine], for which the concentration for half-maximal inhibition (IC50) is 100 to 1000 nM. The same measure for `c1cc(-c2nc(Nc3ccc(N4CCOCC4)cc3)c3[nH]ncc3n2)no1` [Example 74, 5-(isoxazol-3-yl)-N-(4-morpholinophenyl)-1H-pyrazolo[4,3-d]pyrimidin-7-amine]: 100 to 1000 nM; for `c1nn(C2CCOCC2)cc1Nc1nc(C2C3CCCCC32)nc2cn[nH]c12` (stereo not shown) [Example 473, 5-(bicyclo[4.1.0]heptan-7-yl)-N-(1-(tetrahydro-2H-pyran-4-yl)-1H-pyrazol-4-yl)-1H-pyrazolo[4,3-d]pyrimidin-7-amine]: 100 to 1000 nM. As for `O=C1CCc2ccc(Nc3nc(C4CC4)nc4cn[nH]c34)cc2N1` [Example 22, 7-((5-cyclopropyl-1H-pyrazolo[4,3-d]pyrimidin-7-yl)amino)-3,4-dihydroquinolin-2(1H)-one], the IC50 is below 10 nM. For `CC(C)Cn1cc(Nc2nc(-c3ccco3)nc3cn[nH]c23)cn1` [Example 238, 5-(furan-2-yl)-N-(1-isobutyl-1H-pyrazol-4-yl)-1H-pyrazolo[4,3-d]pyrimidin-7-amine] the value was 10 to 100 nM; for `COc1ccc(Nc2nc(C3CC3)nc3cn[nH]c23)cc1OC` [Example 19, 5-cyclopropyl-N-(3,4-dimethoxyphenyl)-1H-pyrazolo[4,3-d]pyrimidin-7-amine], 10 to 100 nM; for `c1nn(C2CCNC2)cc1Nc1nc(C2C3CCCCC32)nc2cn[nH]c12` (stereo not shown) [Example 474, 5-(bicyclo[4.1.0]heptan-7-yl)-N-(1-(pyrrolidin-3-yl)-1H-pyrazol-4-yl)-1H-pyrazolo[4,3-d]pyrimidin-7-amine], 100 to 1000 nM. For `COCCn1cc(Nc2nc(-c3ccc4cn[nH]c4c3)nc3cn[nH]c23)cn1` [Example 131, 5-(1H-indazol-6-yl)-N-(1-(2-methoxyethyl)-1H-pyrazol-4-yl)-1H-pyrazolo[4,3-d]pyrimidin-7-amine] the value was 10 to 100 nM; for `CC(C)(C)c1nc(Nc2cnn(C3CC3)c2)c2[nH]ncc2n1` [Example 273, 5-(tert-butyl)-N-(1-cyclopropyl-1H-pyrazol-4-yl)-1H-pyrazolo[4,3-d]pyrimidin-7-amine], 100 to 1000 nM; for `CC(C)(C)N1CCN(c2ccc(Nc3nc(-c4ccccc4F)nc4cn[nH]c34)cc2)CC1` [Example 23, N-(4-(4-(tert-butyl)piperazin-1-yl)phenyl)-5-(2-fluorophenyl)-1H-pyrazolo[4,3-d]pyrimidin-7-amine], 100 to 1000 nM. The same measure for `CC(C)Cn1cc(Nc2nc(-c3ncco3)nc3cn[nH]c23)cn1` [Example 252, N-(1-isobutyl-1H-pyrazol-4-yl)-5-(oxazol-2-yl)-1H-pyrazolo[4,3-d]pyrimidin-7-amine]: 100 to 1000 nM.
